Test results taken from ChEMBL document CHEMBL3885881, “DrugMatrix”.

Organism: Rattus norvegicus
Experiment: DrugMatrix - Regimen: Daily Repeat
Format: toxicity, organism-based, Sprague-Dawley
Set-up: regimen Daily Repeat, gender Male, age 6-8 weeks
Details: in vivo, po, route oral GAVAGE, […]; for ABSOLUTE BASOPHIL / BASOPHIL / ABSOLUTE EOSINOPHIL / ABSOLUTE LYMPHOCYTE / ABSOLUTE MONOCYTE / ABSOLUTE SEGMENTED NEUTROPHIL / EOSINOPHIL / ERYTHROCYTE COUNT / HEMATOCRIT / HEMOGLOBIN / LEUKOCYTE COUNT / LYMPHOCYTE / MEAN CORPUSCULAR HEMOGLOBIN / MEAN CORPUSCULAR HEMOGLOBIN CONCENTRATION / MEAN CORPUSCULAR VOLUME / MONOCYTE / NEUTROPHIL / NUCLEATED RED BLOOD CELLS / PLATELET COUNT: tissue Blood; for ALANINE AMINOTRANSFERASE / ALBUMIN / ALKALINE PHOSPHATASE / ASPARTATE AMINOTRANSFERASE / BLOOD UREA NITROGEN / CARBON DIOXIDE / CHLORIDE / CHOLESTEROL / CREATINE PHOSPHOKINASE / CREATININE / GLUCOSE / LACTATE DEHYDROGENASE / LIPASE / PHOSPHORUS / POTASSIUM / SODIUM / TOTAL BILIRUBIN / TOTAL PROTEIN / URIC ACID: tissue Plasma
[1] = 0 mg/kg, 72 h, dose level Control, time 3 day
[2] = 0 mg/kg, 120 h, dose level Control, time 5 day
[3] = 4 mg/kg, 72 h, dose level Low, time 3 day
[4] = 4 mg/kg, 120 h, dose level Low, time 5 day
[5] = 16 mg/kg, 72 h, dose level High, time 3 day
[6] = 16 mg/kg, 120 h, dose level High, time 5 day

With `O=NN(CCCl)C(=O)NCCCl` [CARMUSTINE] the “ABSOLUTE BASOPHIL” value [1] was 0 CELLS/uL, the BASOPHIL [1] was 0% and the “ABSOLUTE BASOPHIL” value [2] was 0 CELLS/uL. The “ABSOLUTE EOSINOPHIL” value [2] was 0 CELLS/uL, the “ABSOLUTE LYMPHOCYTE” value [2] was 10431 CELLS/uL and the “ABSOLUTE MONOCYTE” value [2] was 90.5 CELLS/uL. The “ABSOLUTE SEGMENTED NEUTROPHIL” value [2] was 1111.83 CELLS/uL, the BASOPHIL [2] was 0% and the EOSINOPHIL [2] was 0%. The “ERYTHROCYTE COUNT” value [2] was 5.51 x10E6/uL, the HEMATOCRIT [2] was 34.67% and the HEMOGLOBIN [2] was 13.5 G/DL. For the same compound, the “LEUKOCYTE COUNT” value [2] was 11.63 x10E3/uL, the LYMPHOCYTE [2] was 89.67% and the “MEAN CORPUSCULAR HEMOGLOBIN” value [2] was 24.5 pg. For the same compound, the “MEAN CORPUSCULAR HEMOGLOBIN CONCENTRATION” value [2] was 38.95 G/DL, the “MEAN CORPUSCULAR VOLUME” value [2] was 62.87 fL and the MONOCYTE [2] was 0.67%. For the same compound, the NEUTROPHIL [2] was 9.67%, the “NUCLEATED RED BLOOD CELLS” value [2] was 0 /100WBC and the “PLATELET COUNT” value [2] was 1052.67 x10E3/uL. The “ALANINE AMINOTRANSFERASE” value [2] was 54.67 u/L, the ALBUMIN [2] was 4.15 G/DL and the “ALKALINE PHOSPHATASE” value [2] was 359.83 u/L. For the same compound, the “ASPARTATE AMINOTRANSFERASE” value [2] was 83 u/L, the “BLOOD UREA NITROGEN” value [2] was 13.5 mg/dL and the “CARBON DIOXIDE” value [2] was 27.17 mmol/L. The CHLORIDE [2] was 98.5 MEQ/L, the CHOLESTEROL [2] was 66.83 mg/dL and the “CREATINE PHOSPHOKINASE” value [2] was 256.17 u/L. The CREATININE [2] was 0.19 mg/dL, the GLUCOSE [2] was 171.33 mg/dL and the “LACTATE DEHYDROGENASE” value [2] was 91.5 u/L. For the same compound, the LIPASE [2] was 10.5 u/L, the PHOSPHORUS [2] was 8.72 mg/dL and the POTASSIUM [2] was 5.34 MEQ/L. The SODIUM [2] was 142.53 MEQ/L, the “TOTAL BILIRUBIN” value [2] was 0.2 mg/dL and the “TOTAL PROTEIN” value [2] was 6.05 G/DL. For the same compound, the “URIC ACID” value [2] was 0.6 mg/dL, the “ABSOLUTE BASOPHIL” value [3] was 0 CELLS/uL and the “ABSOLUTE EOSINOPHIL” value [3] was 0 CELLS/uL. For the same compound, the “ABSOLUTE LYMPHOCYTE” value [3] was 4876.33 CELLS/uL, the “ABSOLUTE MONOCYTE” value [3] was 48 CELLS/uL and the “ABSOLUTE SEGMENTED NEUTROPHIL” value [3] was 442.33 CELLS/uL. The BASOPHIL [3] was 0%, the EOSINOPHIL [3] was 0% and the “ERYTHROCYTE COUNT” value [3] was 5.3 x10E6/uL. For the same compound, the HEMATOCRIT [3] was 33.47%, the HEMOGLOBIN [3] was 13.1 G/DL and the “LEUKOCYTE COUNT” value [3] was 5.37 x10E3/uL. For the same compound, the LYMPHOCYTE [3] was 90.67%, the “MEAN CORPUSCULAR HEMOGLOBIN” value [3] was 24.7 pg and the “MEAN CORPUSCULAR HEMOGLOBIN CONCENTRATION” value [3] was 39.13 G/DL. For the same compound, the “MEAN CORPUSCULAR VOLUME” value [3] was 63.13 fL, the MONOCYTE [3] was 1% and the NEUTROPHIL [3] was 8.33%. For the same compound, the “NUCLEATED RED BLOOD CELLS” value [3] was 0 /100WBC, the “PLATELET COUNT” value [3] was 1176.67 x10E3/uL and the “ALANINE AMINOTRANSFERASE” value [3] was 69.33 u/L. For the same compound, the ALBUMIN [3] was 4.2 G/DL, the “ALKALINE PHOSPHATASE” value [3] was 310 u/L and the “ASPARTATE AMINOTRANSFERASE” value [3] was 124.67 u/L. The “BLOOD UREA NITROGEN” value [3] was 8.33 mg/dL, the “CARBON DIOXIDE” value [3] was 31.67 mmol/L and the CHLORIDE [3] was 102 MEQ/L. The CHOLESTEROL [3] was 70 mg/dL, the “CREATINE PHOSPHOKINASE” value [3] was 196 u/L and the CREATININE [3] was 0.11 mg/dL. For the same compound, the GLUCOSE [3] was 149.33 mg/dL, the “LACTATE DEHYDROGENASE” value [3] was 75.67 u/L and the LIPASE [3] was 45 u/L. The PHOSPHORUS [3] was 9.8 mg/dL, the POTASSIUM [3] was 5.86 MEQ/L and the SODIUM [3] was 147.15 MEQ/L. The “TOTAL BILIRUBIN” value [3] was 0.2 mg/dL, the “TOTAL PROTEIN” value [3] was 5.6 G/DL and the “URIC ACID” value [3] was 0.47 mg/dL. The “ABSOLUTE BASOPHIL” value [4] was 0 CELLS/uL, the “ABSOLUTE EOSINOPHIL” value [4] was 0 CELLS/uL and the “ABSOLUTE LYMPHOCYTE” value [4] was 3763.67 CELLS/uL. The “ABSOLUTE MONOCYTE” value [4] was 27 CELLS/uL, the “ABSOLUTE SEGMENTED NEUTROPHIL” value [4] was 142.67 CELLS/uL and the BASOPHIL [4] was 0%. The EOSINOPHIL [4] was 0%, the “ERYTHROCYTE COUNT” value [4] was 5.76 x10E6/uL and the HEMATOCRIT [4] was 35.3%. The HEMOGLOBIN [4] was 13.53 G/DL, the “LEUKOCYTE COUNT” value [4] was 3.93 x10E3/uL and the LYMPHOCYTE [4] was 95.67%. For the same compound, the “MEAN CORPUSCULAR HEMOGLOBIN” value [4] was 23.5 pg, the “MEAN CORPUSCULAR HEMOGLOBIN CONCENTRATION” value [4] was 38.33 G/DL and the “MEAN CORPUSCULAR VOLUME” value [4] was 61.27 fL. For the same compound, the MONOCYTE [4] was 0.67%, the NEUTROPHIL [4] was 3.67% and the “NUCLEATED RED BLOOD CELLS” value [4] was 0 /100WBC. The “PLATELET COUNT” value [4] was 1079.33 x10E3/uL, the “ALANINE AMINOTRANSFERASE” value [4] was 65 u/L and the ALBUMIN [4] was 4.4 G/DL. The “ALKALINE PHOSPHATASE” value [4] was 287.67 u/L, the “ASPARTATE AMINOTRANSFERASE” value [4] was 91.67 u/L and the “BLOOD UREA NITROGEN” value [4] was 10 mg/dL. The “CARBON DIOXIDE” value [4] was 27.67 mmol/L, the CHLORIDE [4] was 101.33 MEQ/L and the CHOLESTEROL [4] was 66.67 mg/dL. For the same compound, the “CREATINE PHOSPHOKINASE” value [4] was 256.67 u/L, the CREATININE [4] was 0.22 mg/dL and the GLUCOSE [4] was 159.33 mg/dL. The “LACTATE DEHYDROGENASE” value [4] was 67.33 u/L, the LIPASE [4] was 10.67 u/L and the PHOSPHORUS [4] was 8.57 mg/dL. The POTASSIUM [4] was 5.14 MEQ/L, the SODIUM [4] was 148.03 MEQ/L and the “TOTAL BILIRUBIN” value [4] was 0.13 mg/dL. For the same compound, the “TOTAL PROTEIN” value [4] was 6.3 G/DL, the “URIC ACID” value [4] was 0.57 mg/dL and the “ABSOLUTE BASOPHIL” value [5] was 0 CELLS/uL. The “ABSOLUTE EOSINOPHIL” value [5] was 0 CELLS/uL, the BASOPHIL [5] was 0% and the EOSINOPHIL [5] was 0%. For the same compound, the “TOTAL PROTEIN” value [5] was 11.13 G/DL, the “ABSOLUTE BASOPHIL” value [6] was 0 CELLS/uL and the “ABSOLUTE EOSINOPHIL” value [6] was 9 CELLS/uL. The “ABSOLUTE LYMPHOCYTE” value [6] was 2345.67 CELLS/uL, the “ABSOLUTE MONOCYTE” value [6] was 24.67 CELLS/uL and the “ABSOLUTE SEGMENTED NEUTROPHIL” value [6] was 87.33 CELLS/uL. For the same compound, the BASOPHIL [6] was 0%, the EOSINOPHIL [6] was 0.33% and the “ERYTHROCYTE COUNT” value [6] was 6.17 x10E6/uL. The HEMATOCRIT [6] was 38.6%, the HEMOGLOBIN [6] was 14.23 G/DL and the “LEUKOCYTE COUNT” value [6] was 2.47 x10E3/uL. The LYMPHOCYTE [6] was 95%, the “MEAN CORPUSCULAR HEMOGLOBIN” value [6] was 23.1 pg and the “MEAN CORPUSCULAR HEMOGLOBIN CONCENTRATION” value [6] was 36.93 G/DL. The “MEAN CORPUSCULAR VOLUME” value [6] was 62.57 fL, the MONOCYTE [6] was 1% and the NEUTROPHIL [6] was 3.67%. The “NUCLEATED RED BLOOD CELLS” value [6] was 0 /100WBC, the “PLATELET COUNT” value [6] was 1131 x10E3/uL and the “ALANINE AMINOTRANSFERASE” value [6] was 102 u/L. The ALBUMIN [6] was 3.93 G/DL, the “ALKALINE PHOSPHATASE” value [6] was 370.33 u/L and the “ASPARTATE AMINOTRANSFERASE” value [6] was 322 u/L. For the same compound, the “BLOOD UREA NITROGEN” value [6] was 8.33 mg/dL, the “CARBON DIOXIDE” value [6] was 27.67 mmol/L and the CHLORIDE [6] was 98 MEQ/L. The CHOLESTEROL [6] was 235 mg/dL, the “CREATINE PHOSPHOKINASE” value [6] was 236.67 u/L and the CREATININE [6] was 0.21 mg/dL. For the same compound, the GLUCOSE [6] was 146 mg/dL, the “LACTATE DEHYDROGENASE” value [6] was 165.33 u/L and the LIPASE [6] was 12 u/L. For the same compound, the PHOSPHORUS [6] was 9.6 mg/dL, the POTASSIUM [6] was 5.3 MEQ/L and the SODIUM [6] was 146.6 MEQ/L. The “TOTAL BILIRUBIN” value [6] was 1.73 mg/dL, the “TOTAL PROTEIN” value [6] was 6.4 G/DL and the “URIC ACID” value [6] was 0.6 mg/dL.
